Data set [1] deals with L. monocytogenes biofilms.
Experimental: The antibiofilm activity of the Bac-amp1 and IDR-1018 peptides was tested by analyzing their ability to inhibit the formation of bacterial biofilms of L. monocytogenes.
The ability of peptides to prevent the formation of L. monocytogenes biofilms was determined according to the microplate assay described in G. Di Bonaventura et al. (2008, J Appl Microbiol 104(6):1552-61) with some modifications.
10 ml of bacterial suspension were then centrifuged the cell pellet was washed in PBS and diluted in BHI broth, reaching the concentration of about 10^3 CFU/ml of standardized inoculum.
The biofilm formation assays were conducted using as target surfaces the Aisi 304 stainless steel discs having a diameter of 14.5 mm (SS) used in the food industry as food contact surfaces. The discs were placed on 24-well Falcon® tissue culture plates, (Thermo Fisher Scientific Inc., Waltham, Mass., USA), with flat bottom and lid. Before use, the stainless steel discs were immersed in 10% acetone and left under weak stirring at room temperature for 30 min. After washing in ultrapure sterile water, the discs were incubated in ethanol 99.8% for 10 minutes under weak stirring and then washed in ultrapure sterile water, dried, packaged and sterilized at 121° C., 1 atm for 15 minutes.
In each set of experiments, 600 μl of standardized inoculum in the presence or absence of each of the peptides at the concentration of 12.5 μM, 25 μM or 50 μM were added to 24-well culture plates containing the previously treated stainless steel materials. BHI Broth was used as a negative control. The plates were incubated at 37° C. for 72 hours under static conditions. The cell count of L. monocytogenes, according to the ISO 11290-2:98 method. After incubation, the SS discs were washed three times with PBS and placed in a new plate to dry at 60° C. for 1 hour. […] Quantitative analysis of biofilm production was performed by adding 1 ml of 33% acetic acid, which removes the dye from the adhered cells. 200 μl of the obtained solution were transferred to a microplate and the crystal violet level (OD) was measured at 492 nm. […]
Data set [2] relates to Listeria monocytogenes (ATCC strain and field strains SS1-SS5). The procedure:
The bactericidal activity of the Bac-amp1 and IDR-1018 peptides was evaluated against both Gram+ (Listeria monocytogenes and Staphylococcus aureus) and Gram− (Salmonella typhimurium) pathogenic bacteria.
Standard deviations for triple incubations of each plate and EC50 evaluation were determined using GraphPad Prism version 6.00 (Graph-Pad Software, La Jolla Calif. USA)
As regards Listeria monocytogenes, five field strains were added to the trial (wild strains) SS1 (serotype 4b), SS2 (serotype 4b), SS3 (serotype 4b), SS4 (serotype 4b), SS5 (serotype ½c) shown in Table 2. These strains were isolated from 200 samples of food waste, in particular fish products and milk derivatives, obtained from workbenches of food companies. All samples were collected in a context of official controls. Isolation of Listeria monocytogenes strains was performed according to the ISO-11290-1 standard. […]
In all the investigated experimental conditions, the plate counting method was used to estimate the bactericidal activity of the peptides. Specifically, the number of colonies grown on plates with agar seeded with bacterial suspensions in the absence or in the presence of individual dilutions of peptides was counted and compared. The standard deviations of the triple incubations of each plate were determined using statistical software. […]

Data set [3] can be described thus: pH stability assay by Circular Dichroism. The note with it: 10 mM SDS, 24 hours at 37° C. As to the method: The stability of the Bac-amp1 and IDR-1018 peptides was assessed by studying their secondary structure with Circular Dichroism (CD) spectroscopy in the presence of Sodium Dodecyl Sulfate (SDS) micelles at a concentration of 10 mM to mimic the condition of the cell membrane, in different temperature and pH conditions.
CD assays were performed with a Jasco J-810 Spectropolarimeter equipped with a thermostatted cuvette compartment. The samples were loaded into a 0.1 cm-long quartz cuvette (Hellma Analytics) and the spectrum was analyzed in the 190 nm to 250 nm range at temperatures of 15° C. or 90° C. for each sample.
The CD spectra were acquired at a scanning speed of 20 nm/min, and the recorded results represent an average of 5 scans. The spectra at 90° C. were collected at time zero and after 2 hours to evaluate the thermostability of peptides at high temperatures.
The average ellipticity of the residues ([θ], degrees cm^2 dmol^−1) was calculated using the following equation: [θ]=100θ/cn1 where θ represents ellipticity (m degrees), c is the concentration (mM) of the peptide, n is the number of residues. The secondary structure was calculated through the DICHROWEB site (Whitmore L and Wallace B A, 2004, Nucleic Acids Research 32: 668-673, Whitmore L and Wallace B A, 2008, Biopolymers 89:392-400, Lobley et al, 2002, Bioinformatics 18:211-212), using three different algorithms (SELCON3, CONTIN-LLe CDSSTR) (Sreerema N and Woody R W, 1993, Analytical Biochemistry 287:252-260; Sreerema N et al, 1999, Protein Science 8:370-380, Provencher S W and Glockner J, 1981, Biochemistry 20:33-37, Van Stokkum I H M et al, 1990, Analytical Biochemistry 191:110-118, Compton L A and Johnson W C, 1986, Analytical Biochemistry 155:155-167, Manavalan P and Johnson W C, 1987, Analytical Biochemistry 167:76-85, Sreerama N et al, 2000, Protein Science 8:370-380) and selecting as a comparison data set the SMP180 protein, which includes a high number of soluble and membrane proteins (Abdul-Gader A et al, 2011, Bioinformatics 27:1630-1636). […]
For orientation: CD spectra are sensitive to the conformation of chiral molecules.

Ends that are not written are not given here.

The results in this text go back to US11478528B2, “Antimicrobial peptides against Listeria monocytogenes” (MATERIAS S.r.l., priority 2017, dated 2022).

One may read the EC50 as the concentration giving half of the maximal effect. Higher therefore signals a need for much substance.

As to “VRLIVKVRIWRR-NH2 [Bac-amp1, VRLIVKVRIWRR-NH2]”, the “MIC, antibiofilm activity” value in data set [1] (biofilms) is 25 to 50 µM. In addition, in data set [1] (biofilms, 72 h), the “MBIC100 (minimum biofilm inhibiting concentration)” value was 25 to 50 µM. In addition, in data set [1] (concentrations of 25-50 μM, 72 h, 37° C., steel discs), the “reduction of microbial biomass” value amounted to 100%. For the same substance, in data set [2] (ATCC strain and field strains SS1-SS5), the “MIC, bactericidal activity against Listeria monocytogenes” value was “below 10 μM”. For the same substance, the EC50 in data set [2] (ATCC strain and field strains SS1-SS5, 6 h) was found to be 550 nM. The “pH range with increase in the percentage of unordered random coil structure” value in data set [3] is 1.0-4.0.
